This note sets out measurements from patent publication US6960559B1, “Neurite growth regulatory factors” (University of Zurich, priority 1988, dated 2005).

Read-outs that look alike come from different tables or passages of the source. Where a SMILES comes first, the peptide text is derived from it. The star is where a group is joined. Cbz = O=C(OCc1ccccc1)*

Series [1] concerns C6 cells. In words: C6 cell spreading on CNS myelin or PLYS with protease inhibitors. The format is cell-based, rat. The conditions noted are these: for Inhibition on CNS (%): spreading on PLYS minus spreading on CNS myelin. On the procedure:
Rat C6, mouse NIH 3T3 and B16 cells were cultured in Dulbecco's modified Eagle's medium (DMEM) supplemented with 10% fetal calf serum (FCS), usually to maximally 70-80% confluency. Cells were harvested with a short trypsin treatment (0.1% in Ca^2+/Mg^2+-free Hank's medium for 90 seconds) stopped by addition of FCS in excess, collected by centrifugation. Cells were resuspended in either DMEM/FCS or defined serum-free medium (MEM) and used for experiments. Dissociated rat CNS glial cells were prepared starting from optic nerves of 6-7 days old Lewis rats as described in Section 6.1.1, supra and plated into poly-D-lysine (PLYS) coated wells (100 mm^2, 100 μl medium) at a density of 20,000 cells per well. The culture medium was an enriched L15 medium with 5% rat serum, penicillin and streptomycin. C6, 3T3 and B16 cells were added to 2 day old cultures at a concentration of 30,000 cells per well, incubated for two hours and fixed with warm 4% formalin in phosphate buffer. Inhibitory oligodendrocytes were identified by double labelling using the specific antibodies O1 and O4 (see Section 6.1.3, supra).
Myelin from rat spinal cord (CNS) or sciatic nerve (PNS) purified on a discontinuous sucrose gradient as described in Section 6.1.5., was dried overnight onto PLYS coated wells (20 μg protein/well of 100 mm^2 surface). Unbound membranes were removed by three washes with Ca^2+/Mg^2+-free Hank's solution. Myelin coated wells were immediately used in substrate testing assays by the addition of 9,000 cells (C6, 3T3, or B16) per cm^2. Alternatively, we used extracted CNS myelin protein, or SDS-PAGE purified 35 and 250 kD inhibitory proteins reconstituted in liposomes (see Section 7.1.5, supra). Experiments were scored at different time points using a phase contrast microscope equipped with a photocamera. Quantifications were done using a surface integration program; three arbitrary fields were photographed for each well at a magnitude of 80×, at least 25 cells per picture were measured. Each point represents the mean of at least 3 wells±SEM. Results are expressed as μ^2 of projected cell surface, or as degree, which was calculated by subtracting from the projected surface value of a spreading cell, the surface value of a completely spheric cell.

A further series deals with C6 glioblastoma cells. Description: cells. The format is cell-based, rat. Particulars: 2 h. Here is the method:
Rat C6 glioblastoma cells (Benda et al., 1968, Science 161:370-371) were cultured in Dulbecco's modified Eagle's medium (DMEM) supplemented with 10% fetal calf serum (FCS), usually to maximally 70-80% confluency (Paganetti et al., 1988, J. Cell Biol. 107:2281-2291). All cell culture media were routinely supplemented with penicillin and streptomycin. Cells were harvested by a short trypsin treatment (0.1% in Ca^2+/Mg^2+-free [CMF] PBS/EDTA solution for 90 seconds) followed by addition of DMEM/10% FCS and centrifugation (600×g, 6 min). The cell pellet was rinsed with 5 ml DMEM/10% FCS and centrifuged. For cell spreading assays, cells were resuspended at 10^6/ml in defined serum-free medium (MEMα) supplemented with 0.2 μg/ml insulin, 0.5 μg/ml transferrin and 0.12 μg/ml bovine serum albumin (BSA). Protease blockers or peptides were added directly to the cell suspension from 10×solutions 10 min before plating.
Spinal cord myelin from young adult Lewis rats was purified on a discontinuous sucrose gradient (Colman et al., 1982, J. Cell Biol. 95:598-608; Schwab and Caroni, 1988, J. Neurosci. 8:2381-2393) and stored in 100 mM sucrose, 25 mM TRIS/HCl pH 7.4 at −80° C. up to 6 months. The myelin suspension ([…]) was incubated for 30 min on poly-D-lysine-coated wells (PLYS-wells). Unbound myelin membranes were removed by rinsing twice with CMF-Hank's and once with MEMα. Myelin-coated wells were used immediately for the spreading assay by adding 9'000 C6 cells per cm^2. Experiments were scored as described (Paganetti et al., 1988, J. Cell Biol. 107:2281-2291).

The test system of series [2] is C6 cells. Description: C6 cell attachment and spreading on rat cerebellar frozen sections. Particulars: 1,10-phenanthroline 50-300 μM; cbz-tyr-tyr 100 μM. It counts as cell-based. On the procedure:
Adult rat cerebellum frozen sections were prepared and dried on glass coverslips. 70,000 C6, 3T3, or B16 cells in 100 μl were added to each well containing slices previously rinsed with cold DMEM/FCS. Cultures were incubated for 2 days at 37° C. Cultures were then fixed and stained with cresyl violet. Three to four cerebellum slices were used per point per experiment, with each experiment being repeated at least 2 times.

The test system of series [3] is C6 cells. Description: C6 cell infiltration into optic nerve explants. The format is cell-based, rat. The conditions noted are these: nerves injected with 3 mM peptide, 0.5 mM in medium; 14 days. On the procedure:
Optic nerve and sciatic nerve explants were prepared as described (Schwab and Thoenen, 1985, J. Neurosci. 5:2415-2423). Briefly, the nerves were rapidly dissected from about 8 week old male rats, cleaned from the meninges, 3 times frozen and thawed using liquid nitrogen, and placed under a teflon ring (diameter 13 mm, thickness 1 mm) sealed to a culture dish with silicon grease. Two chambers connected only by the explants were in this way obtained. 300,000 C6, 3T3 or B16 cells were plated in the inner chamber in DMEM/FCS and incubated for 5 to 20 days. The medium was changed every other day. Cultures were fixed overnight with 4% formalin. The nerve explants were mounted with Tissue-Tek, 10 to 15 μm sections were cut in a cryostate and collected on gelatine coated cover slips. After drying at room temperature overnight, the sections were stained in 0.75% cresyl violet, and evaluated. The infiltrated cells were counted for each 0.1 mm of the explants, starting from the tip where cells were added. Due to the 15 day incubation, the explants were often different in diameter. Therefore, only the central part of the nerves (0.25 mm) were considered, since only this part of the explants presented a good histological quality. Inhibition experiments were performed with nerve explants previously injected from both sides with 2 μl of 3 mM cbz-tyr-tyr or cbz-ala-phe solutions.

Series [4] deals with C6 plasma membrane associated metalloendoprotease. In words: Enzyme assay: cbz-FAF[125I]Y-NH2 degradation by C6 plasma membranes with protease blockers. It counts as biochemical, rat. Here is the method:
For most experiments, 70-80% confluent cell layers (1 cm^2 wells, 100 μl MEMα) or 2-5 μg C6 plasma membrane (100 μl MEMα) were used. […] If indicated, cell layers or plasma membrane suspensions were preincubated for 30 min with protease blockers or peptides. NEM or iodacetamide incubations of plasma membranes were performed at pH 8.5. The incubation was stopped by loading a 10 μl aliquot of the incubation medium on a thin layer chromatography plate (10 cm height, Kieselgel 60 F254, MERCK, Germany) and air dried. […] Plates were then air dried and exposed on Kodak X-OMAT films (NY, USA) with an intensifying screen. To identify the degradation products on thin-layer chromatography, we run reference peptides under the same conditions.
For the quantification of the activity, the reaction was stopped by addition of an equal volume of chloroform. […] Activity is expressed as % radioactivity contained in the aqueous phase. 100% is the sum of the radioactivity of both phases.

The test system of a further series is 3T3 cells. In words: Treatment of CNS myelin with C6 plasma membranes, 3T3 spreading and 3H-thymidine incorporation. It counts as cell-based, mouse. Particulars: 3T3 spreading on CNS myelin pretreated with C6 plasma membranes. Here is the method:
C6 cells grown to 80% confluency were washed twice with Hank's medium, and harvested in 20 ml 8.5% sucrose, 50 mM NaCl, 10 mM Tris buffer, pH 7.4, using a rubber policeman. After mechanical homogenization through a series of needles of decreasing size, a low purity plasma membrane fraction was obtained by centrifugation (5 minutes at 3000×g, 10 minutes at 8000×g, and then 2 hours at 100,000×g). A higher purity fraction was isolated by loading the material on a discontinuous sucrose gradient, containing 50 mM NaCl, 10 mM Tris, pH 7.4 (Quigley, 1976, J. Cell Biol. 71: 472-486). 20-40% sucrose interphase (C6 plasma membranes fraction) and 40-60% sucrose interphase (C6 mitochondrial fraction) were collected, washed in Hank's medium and resuspended in MEM.
CNS myelin coated PLYS wells were prepared as described in the previous section, but instead of being immediately tested as substrate, they were first incubated with 50 μl of C6 plasma membranes (containing 0.8 mg protein/ml MEM) at 37° for 30 minutes. Dishes were then rinsed twice with Hank's medium and immediately used as substrates for 3T3 cells. In some experiments, protease blockers were added to the membranes using 10 times concentrated solutions.
(Incorporation of labelled thymidine or its analogues reports DNA synthesis.)

[5] abbreviates: C6 cells, 1,10-phenanthroline 0.3 mM, antibody as labelled or none, 150 minutes.

The IC50 is the concentration that gives 50% inhibition.

Turning to `O=C(N[C@@H](Cc1ccc(O)cc1)C(=O)N[C@@H](Cc1ccc(O)cc1)C(=O)O)OCc1ccccc1` [cbz-tyr-tyr, carbobenzoxy-tyrosine-tyrosine] (Cbz-Tyr-Tyr-OH), the “Maximal inhibition of C6 cell spreading on CNS myelin” value with C6 cells [1] (2 h) is reported as “up to 67%”. Moreover, the “Inhibition on CNS (%)” value with C6 cells [1] (C6 cells) is reported as 45%. For the same compound, the IC50 in the series with C6 glioblastoma cells is 300 µM. The “C6 cells on white matter of cerebellar frozen sections, in words” value in the series with C6 cells [2] is “dramatically changed the distribution and behavior of C6 cells on the white matter areas”. Further, the “C6 cell infiltration into optic nerve explants, in words” value in the series with C6 cells [3] is on record as “inhibited C6 cell infiltration in all the 8 nerves examined”.

As for `c1cnc2c(c1)ccc1cccnc12` [1,10-phenanthroline], the “Effect on C6 cell spreading on control substrates (PLYS, glass, PNS myelin), in words” value in the series with C6 cells [1] (1,10-phenanthroline up to 0.5 mM) is “did not impair C6 cell spreading”. Also, in the series with C6 cells [1] (C6 cells, 3 hours), the “Concentration exerting a general toxic effect on all substrates” value is “above 0.5 mM”. For the same compound, the “% inhibition on CNS lipos.” value in the series on C6 cells [1] (C6 cells, 1,10-phenanthroline 0.3 mM, antibody as labelled or none) turned out to be 46%. The “Spreading value on CNS lipos.” value with C6 cells [1] (setting [5]) stood at 1.35 μm^2 10^3. The “Spreading value on PLYS” value in the series on C6 cells [1] (setting [5]) is 2.49 μm^2 10^3. The “Inhibition on CNS (%)” value with C6 cells [1] (C6 cells) is given as 67%. Moreover, the IC50 in the series with C6 cells [1] (Rattus norvegicus, C6, Section 9, read-out: Half maximal inhibition (IC50) of C6 spreading on CNS myelin) turned out to be 200 µM; in series [4], 200 µM; in the series on C6 glioblastoma cells (Rattus norvegicus, C6 cell spreading on CNS myelin, read-out: IC50 on CNS myelin), 200 µM; with C6 glioblastoma cells (Rattus norvegicus, C6 cell spreading on PLYS, read-out: IC50 PLYS) it was 600 µM. Further, the “Maximal inhibition of C6 cell spreading on CNS myelin” value in the series on C6 cells [1] (after 2 hours in culture) is given as “up to 67%”. The “Effect on cbz-FAF[^125I]Y-NH2 degradation by C6 plasma membranes, in words” value in series [4] is recorded as “completely blocked the degradation”; in series [4] (listed as o-phenanthroline), “blocked completely either activities”. Also, in the series on C6 cells [2], the “C6 cells on white matter of cerebellar frozen sections, in words” value is “dramatically changed the distribution and behavior of C6 cells on the white matter areas”. Further, the “Effect on neutralization of CNS myelin inhibitory activity by C6 plasma membranes, in words” value with 3T3 cells is given as “completely blocked the C6 plasma membrane effect”.
